In US10906904B2, “ADO-resistant cysteamine analogs and uses thereof” (HORIZON ORPHAN LLC, priority 2015, dated 2021):
Where two headings read alike, the source gives them in different places.

How the values were obtained:
Cystine reactivity assay = assay: Cystine reactivity assay; design: Cystine Reactivity: unit not given here; details: for Cystine Reactivity Assay (30° C.) (%) Mean Value: percentage of 3 mM cysteamine
Description: Cystine reactivity was assessed by incubating 3 mM test compound with 100 nM BODIPY® FL L-Cystine (Life Tech.) at 30° C., pH 7.4 in phosphate buffer. […] Compound cystine reactivity was expressed as a percentage of that of 3 mM cysteamine.
Under resting conditions, the inherent fluorescence of BODIPY® FL L-cystine was very low due to the spatial proximity of the two BODIPY molecules causing quenching. Under chemical reaction (disruption of the S—S bond), the spatial distance was increased, the quenching lost, and measured fluorescence increased. Time (minutes) vs. fluorescence (relative fluorescence units—RFU) was plotted and linear regression analysis was performed to generate a slope value corresponding to the reaction rate in RFU/min and an R2 value.

human recombinant ADO = target: T1, human recombinant ADO (Homo sapiens, UniProt Q96SZ5); assay type: in vitro ADME
T1 sequence (Q96SZ5 1-270): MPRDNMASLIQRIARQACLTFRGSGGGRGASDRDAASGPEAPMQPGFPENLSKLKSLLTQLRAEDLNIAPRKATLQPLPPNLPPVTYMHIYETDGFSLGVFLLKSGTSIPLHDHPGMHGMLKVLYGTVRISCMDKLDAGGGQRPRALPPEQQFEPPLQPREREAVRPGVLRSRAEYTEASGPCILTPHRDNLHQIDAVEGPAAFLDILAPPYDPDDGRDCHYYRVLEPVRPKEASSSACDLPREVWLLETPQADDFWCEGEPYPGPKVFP
Description: The rate of ADO metabolism was determined by incubating 15 mM test compound with 60 μg/ml human recombinant ADO and 20 nM MitoXpress® O2-sensitive fluorescent probe (Luxcel) at 37° C. in assay buffer/salt in a sealed assay chamber. The initial rate of fluorescence (excitation λ380 nm and emission λ650 nm) increase was used to measure ADO-dependent oxygen depletion activity. The ability of ADO to metabolize compounds and concomitantly consume oxygen was expressed relative to that of 15 mM cysteamine.

[1] = system: cystinotic human fibroblasts; assay: Cystine depletion assay; assay type: cell-based; details: for Emax: Homo sapiens, Fibroblast, 1 h, relative to cystine depletion by cysteamine (100%) at a similar concentration
Description: The ability of test compounds to deplete cystine from cystinotic human fibroblasts (Coriell) was determined by incubating compounds with cells for 60 min at 37° C., 95% (v/v) air/5% (v/v) CO2 in Minimal Essential Media Eagle. Treated cell samples were subsequently harvested, then homogenized to ensure plasma and lysosomal membrane disruption. Protein was removed by acid precipitation and cystine in the supernatant measured using LC-MS/MS and HILIC chromatography. Protein levels were determined and cystine levels reported as nM per mg/ml protein. Cystine levels after test compound treatment were expressed as a percentage of that of untreated control cells.
Compounds were assayed at a concentration of 50 μM or 100 μM according to the general methods described above.
Cystine depletion levels for the compounds are expressed in Table 4 as a percent relative to the cystine depletion achieved by cysteamine (c.f. cysteamine 100%) at a similar concentration.
Cystine depletion levels for each of the compounds in Table 5 are expressed as a percent relative to the cystine depletion achieved by cysteamine (c.f. cysteamine 100%) at a similar concentration.

St-HdhQ^111/111 cells = assay: Glutamate-induced neuronal excitotoxicity assay; assay type: cell-based; details: STHdhQ111, 6 mM L-glutamate 24 hours, % of effect of 100 μM cysteamine; for viability at 10 µM: read-out: HdhQ^111/111 cell % survival (mean ± STD) Test Conc. 10 μM; for viability at 100 µM: read-out: HdhQ^111/111 cell % survival (mean ± STD) Test Conc. 100 μM
Description: The ability of test compounds to inhibit glutamate-induced excitotoxicity (neuroprotection) in St-HdhQ^111/111 cells was determined by incubating compounds with cells for 60 min at 33° C., 95% (v:v) air/5% (v:v) CO2 in Dulbecco's Modified Eagle Media. Following this, excitotoxicity was induced by the addition of 6 mM L-glutamate for 24 hours. Cell viability was assessed by measuring ATP levels using a luminescent-based CellTitre Glo assay (Promega). Compound neuroprotection (% cell survival) was expressed as a % of the effect recorded with 100 μM cysteamine (denoted as 100% cell survival).

[2] = Table 5, read-out: Cystine Depletion (%) Mean Value
[3] = Table 4, read-out: Cystine Depletion (%)

Question: For `OC1(CS)CCNCC1` [Compound 145610], which “Cystine Reactivity Assay (30° C.) (%) Mean Value” (Cystine reactivity assay; Table 5) is on record?
Answer: <50%

Question: And the “ADO Metabolism Assay (%) Mean Value” (human recombinant ADO; human, 15 mM)?
Answer: <25%

Question: And the Emax [1, 2]?
Answer: 11%

Question: What about the viability at 10 µM (St-HdhQ^111/111 cells) of the same molecule?
Answer: 11 ± 8%

Question: What about the viability at 100 µM (St-HdhQ^111/111 cells) of the same molecule?
Answer: 87 ± 10%

Question: What does the source list for `N[C@H]1C[C@@H](S)C1` [Compound 42457]?
Answer: Cystine Reactivity Assay (30° C.) (%) Mean Value (Cystine reactivity assay; Table 4): 59-90%; Cystine Reactivity Assay (30° C.) (%) Mean Value (Cystine reactivity assay; Table 5): 50-90%; ADO Metabolism Assay (%) Mean Value (human recombinant ADO; human, 15 mM): <25%; Emax [1, 3]: 108%; Emax [1, 2]: 77%; viability at 10 µM (St-HdhQ^111/111 cells): 6 ± 5%; viability at 100 µM (St-HdhQ^111/111 cells): 91 ± 6%

Question: With `OCCC1(S)CNC1` [Compound 145695] as the molecule, how does the “Cystine Reactivity Assay (30° C.) (%) Mean Value” (Cystine reactivity assay; Table 5) read?
Answer: >90%

Question: And the “ADO Metabolism Assay (%) Mean Value” (human recombinant ADO; human, 15 mM)?
Answer: <25%

Question: What about the Emax [1, 2] of the same molecule?
Answer: 0%

Question: What about the viability at 10 µM (St-HdhQ^111/111 cells) of the same molecule?
Answer: 8 ± 10%

Question: What about the viability at 100 µM (St-HdhQ^111/111 cells) of the same molecule?
Answer: 74 ± 10%

Question: For `O=S(=O)([O-])CCS.[Na+]` [Compound 145566], which “Cystine Reactivity Assay (30° C.) (%) Mean Value” (Cystine reactivity assay; Table 5) is on record?
Answer: <50%

Question: What about the “ADO Metabolism Assay (%) Mean Value” (human recombinant ADO; Table 5, relative to 15 mM cysteamine) of the same molecule?
Answer: <25%

Question: What about the Emax [1, 2] of the same molecule?
Answer: 16%

Question: Which “Cystine Reactivity Assay (30° C.) (%) Mean Value” (Cystine reactivity assay; Table 4) does the source give for `S[C@H]1CCCNC1` [Compound 42247] here?
Answer: >90%

Question: What about the “ADO Metabolism Assay (%) Mean Value” (human recombinant ADO; human, 15 mM) of the same molecule?
Answer: <25%

Question: What about the Emax [1, 3] of the same molecule?
Answer: 96%

Question: And the viability at 10 µM (St-HdhQ^111/111 cells)?
Answer: 5 ± 8%

Question: And the viability at 100 µM (St-HdhQ^111/111 cells)?
Answer: 84 ± 13%

Question: With `SC1CCCNC1` (stereo not shown) [Compound 42208] as the molecule, how does the “Cystine Reactivity Assay (30° C.) (%) Mean Value” (Cystine reactivity assay; Table 4) read?
Answer: >90%

Question: What about the “ADO Metabolism Assay (%) Mean Value” (human recombinant ADO; human, 15 mM) of the same molecule?
Answer: <25%

Question: What about the Emax [1, 3] of the same molecule?
Answer: 102%

Question: With `Cn1cc[nH]c1=S` [Compound 1176] as the molecule, how does the “Cystine Reactivity Assay (30° C.) (%) Mean Value” (Cystine reactivity assay; Table 5) read?
Answer: <50%

Question: What about the “ADO Metabolism Assay (%) Mean Value” (human recombinant ADO; human, 15 mM) of the same molecule?
Answer: <25%

Question: And the Emax [1, 2]?
Answer: 10%

Question: Which results are given for `CC(C)(S)CN` [Compound 3a]?
Answer: Cystine Reactivity (Cystine reactivity assay; Tables 1-3): 2284; metabolism by ADO compared to cysteamine (in words) (human recombinant ADO): significantly reduced metabolism by ADO compared to cysteamine; ADO metabolism (human recombinant ADO; human, 15 mM): 14%; cystine depletion levels (in words) ([1]; compared to cysteamine): slightly decreased; Cystine depletion ([1]; compound at 50 μM or 100 μM, Tables 1-3): 32%

Question: Which “ADO Metabolism Assay (%) Mean Value” (human recombinant ADO; human, 15 mM) does the source give for `C[C@H]1CNCC[C@@H]1S` [Compound 42614] here?
Answer: <25%

Question: And the Emax [1, 3]?
Answer: 117%

Question: And the viability at 10 µM (St-HdhQ^111/111 cells)?
Answer: 2 ± 6%

Question: And the viability at 100 µM (St-HdhQ^111/111 cells)?
Answer: 59 ± 12%

Question: For `SCc1ccccn1` [Compound 42213], which “Cystine Reactivity Assay (30° C.) (%) Mean Value” (Cystine reactivity assay; Table 4) is on record?
Answer: >90%

Question: And the “ADO Metabolism Assay (%) Mean Value” (human recombinant ADO; human, 15 mM)?
Answer: >75%

Question: What about the Emax [1, 3] of the same molecule?
Answer: 0%

Question: With `NCCCNCCS` [Compound 145564] as the molecule, how does the “Cystine Reactivity Assay (30° C.) (%) Mean Value” (Cystine reactivity assay; Table 5) read?
Answer: >90%

Question: What about the “ADO Metabolism Assay (%) Mean Value” (human recombinant ADO; human, 15 mM) of the same molecule?
Answer: 25-75%

Question: What about the Emax [1, 2] of the same molecule?
Answer: 36%

Question: Which “Cystine Reactivity Assay (30° C.) (%) Mean Value” (Cystine reactivity assay; Table 4) does the source give for `NC1CC(S)C1` (stereo not shown) [Compound 42209] here?
Answer: 59-90%

Question: And the “ADO Metabolism Assay (%) Mean Value” (human recombinant ADO; human, 15 mM)?
Answer: <25%

Question: What about the Emax [1, 3] of the same molecule?
Answer: 99%

Question: What does the source list for `CN[C@H]1C[C@H](S)C1` [Compound 149609]?
Answer: Cystine Reactivity Assay (30° C.) (%) Mean Value (Cystine reactivity assay; Table 5): <50%; ADO Metabolism Assay (%) Mean Value (human recombinant ADO; human, 15 mM): <25%; Emax [1, 2]: 50%

Question: Which results are given for `SCC1COCCN1` (stereo not shown) [Compound 145591]?
Answer: Cystine Reactivity Assay (30° C.) (%) Mean Value (Cystine reactivity assay; Table 5): 50-90%; ADO Metabolism Assay (%) Mean Value (human recombinant ADO; human, 15 mM): <25%; Emax [1, 2]: 61%

Question: What does the source list for `NC1CCCC(S)C1` (stereo not shown) [Compound 145693]?
Answer: Cystine Reactivity Assay (30° C.) (%) Mean Value (Cystine reactivity assay; Table 5): 50-90%; ADO Metabolism Assay (%) Mean Value (human recombinant ADO; human, 15 mM): <25%; Emax [1, 2]: 81%

Question: With `C[C@@H]1CNCC[C@@H]1S` [Compound 42615] as the molecule, how does the “Cystine Reactivity Assay (30° C.) (%) Mean Value” (Cystine reactivity assay; Table 4) read?
Answer: <50%

Question: And the “ADO Metabolism Assay (%) Mean Value” (human recombinant ADO; human, 15 mM)?
Answer: <25%

Question: What about the Emax [1, 3] of the same molecule?
Answer: 106%

Question: Which results are given for `C[C@H]1CC[C@H](S)CN1` [Compound 42613]?
Answer: Cystine Reactivity Assay (30° C.) (%) Mean Value (Cystine reactivity assay; Table 4): >90%; ADO Metabolism Assay (%) Mean Value (human recombinant ADO; human, 15 mM): <25%; Emax [1, 3]: 109%

Question: Which “Cystine Reactivity Assay (30° C.) (%) Mean Value” (Cystine reactivity assay; Table 5) does the source give for `CCN(CC)C(=S)SSC(=S)N(CC)CC` [Compound 981] here?
Answer: <50%

Question: What about the “ADO Metabolism Assay (%) Mean Value” (human recombinant ADO; human, 15 mM) of the same molecule?
Answer: <25%

Question: And the Emax [1, 2]?
Answer: 25%

Question: With `NC1CC(O)(CS)C1` (stereo not shown) [Compound 149610] as the molecule, how does the “Cystine Reactivity Assay (30° C.) (%) Mean Value” (Cystine reactivity assay; Table 5) read?
Answer: <50%

Question: What about the “ADO Metabolism Assay (%) Mean Value” (human recombinant ADO; human, 15 mM) of the same molecule?
Answer: <25%

Question: And the Emax [1, 2]?
Answer: 15%

Question: With `OCC1(S)CCCNC1` (stereo not shown) [Compound 150730] as the molecule, how does the “Cystine Reactivity Assay (30° C.) (%) Mean Value” (Cystine reactivity assay; Table 5) read?
Answer: >90%

Question: And the “ADO Metabolism Assay (%) Mean Value” (human recombinant ADO; human, 15 mM)?
Answer: <25%

Question: What about the Emax [1, 2] of the same molecule?
Answer: 14%

Question: Which “Cystine Reactivity Assay (30° C.) (%) Mean Value” (Cystine reactivity assay; Table 4) does the source give for `SC1CC2(CNC2)C1` [Compound 42611] here?
Answer: >90%

Question: And the “ADO Metabolism Assay (%) Mean Value” (human recombinant ADO; human, 15 mM)?
Answer: <25%

Question: And the Emax [1, 3]?
Answer: 55%

Question: Which results are given for `CNC1CC(S)C1` (stereo not shown) [Compound 149608]?
Answer: Cystine Reactivity Assay (30° C.) (%) Mean Value (Cystine reactivity assay; Table 5): <50%; ADO Metabolism Assay (%) Mean Value (human recombinant ADO; human, 15 mM): <25%; Emax [1, 2]: 55%
